{"source": "ChEMBL document CHEMBL4480438", "about": "“Inhibitory Properties of ATP-Competitive Coumestrol and Boldine Are Correlated to Different Modulations of CK2 Flexibility” (J Nat Prod, 2019)", "target": "Casein kinase 2 (Homo sapiens, UniProt P67870+P68400+P19784+Q8NEV1)", "assay": "Inhibition of CK2 (unknown origin)", "assay_type": "protein assay"}
{"smiles": "COc1cc2c(cc1O)C[C@H]1c3c(cc(O)c(OC)c3-2)CCN1C", "note": "[BOLDINE]", "values": [{"measurement": "IC50", "value": 700, "unit": "nM"}]}
